According to US10858323B2, “HDAC inhibitors for the treatment of diabetic peripheral neuropathy” (REGENACY PHARMACEUTICALS, LLC, priority 2015, dated 2020):

Key:
[1] = system: streptozotocin-induced diabetic rats (STZ rats); assay: Von Frey test of tactile allodynia in STZ diabetic rats; type: in vivo, rat; conditions: for tactile allodynia / pain threshold (von Frey): STZ rats, oral dosing days 11-21
Procedure: Diabetes was induced in male SD rats by IV dosing of STZ (60 mg/kg) on […]. Blood glucose level (BGL) of above 300 mg/dl was observed on study day 3, following STZ dosing, which maintained throughout the study period.
Gabapentin (150 mg/kg) was used as a positive control. Tactile allodynia was measured on the indicated days during dosing and once on day 24, three days after dosing was stopped. Vehicle treated animals experienced low mechanical threshold throughout the treatment period (days 11-21) and also 3 days after the last dose (day 24).

[2] = Blood brain barrier penetration; conditions: in vivo
Rats = assay: Tail Flick test; type: in vivo, rat; conditions: BID for 4 days or single dose 1 h before test
Procedure: A Tail Flick test was performed every hour in a time period of four hours after treatments.
Data are presented in FIG. 4 as the latency time in seconds until the animals flicked their tails in response to the heat source. Morphine and Gabapentin were used as positive controls.

[3] = system: streptozotocin hyperglycemic rats, dorsal root ganglia and sciatic nerves; assay: Metabolomic study in diabetic neuropathic pain model; type: in vivo, rat; conditions: 10 mg/kg twice per day, 11 days
Procedure: Hyperglycemia was induced in rats with an injection of streptozotocin (60 mg/kg). Ten days later neuropathic pain was confirmed using a von Frey filament test for tactile allodynia. In this test, filaments of increasing diameter were applied to the plantar surface of the rear paw and the force necessary to precipitate a paw withdrawal is determined by the smallest filament needed to invoke a response. […] In addition, three naïve rats and three rats that had tactile allodynia at day 10 were sacrificed and the dorsal root ganglia and sciatic nerves were dissected and frozen as control samples.
Dorsal root ganglia and sciatic nerves were sent to Human Metabolome Technologies for analysis of metabolic intermediates. Extracts from these samples were analyzed by capillary electrophoresis/mass spectrometry to measure the level of charged metabolites. In addition, sciatic nerve extracts were analyzed by liquid chromatography/mass spectrometry to measure the level of non-charged metabolites.

[4] = system: primary rat dorsal root ganglion (DRG) neurons; assay: Mitochondrial axonal transport live imaging under high glucose; type: cell-based; conditions: 200 mM glucose and 500 nM compound, 24 h
Procedure: To investigate the effects of hyperglycemia on axonal transport live imaging was used to measure mitochondrial transport in primary rat dorsal root ganglion cells. Primary rat dorsal root ganglion (DRG) neurons (Lonza) were cultured for 5-7 days according to the vendor's protocol. The day before the imaging session cells were infected using CellLight Mitochondria-GFP (BacMam 2.0-based reagent, ThermoFisher Scientific) to fluorescently label mitochondria. […] Media in control wells was replaced with fresh media containing 25 mM glucose (control). Cells were allowed to incubate under these conditions for 24 h. […] Imaging was performed using Zeiss 3i system (Intelligent Imaging Innovations) in temperate controlled environment (37 C). Mitochondria were visualized using FITC filter. Time lapse images were acquired every 2 seconds over the course of 2 min and analyzed using Fiji (ImageJ). MtrackJ plugin was used to manually track mitochondrial movements and calculate parameters such as total distance traveled by each mitochondria. Total distance traveled by a population of mitochondria in each condition was plotted as a cumulative frequency plot. Data presented is a pool of 5 independent experiments.

[5] = system: Dorsal root ganglion neurons (DRGNs); assay: Tubulin and histone acetylation by western blot of whole cell extracts; type: cell-based, rat; conditions: 24 hours treatment
[6] = system: Dorsal root ganglion neurons (DRGNs); assay: Acetyl-tubulin fluorescent ICC of axonal microtubules; type: cell-based, rat
Procedure: DRGNs were treated with Compound 2 on coverslips, fixed and stained with antibodies against acetyl-tubulin and total tubulin (fluorescent ICC) to visualize and quantitate tubulin acetylation in axonal microtubules. […] Acetyl-tubulin signal was normalized to total tubulin signal.

HDAC1 = HDAC1 (Homo sapiens (Human), UniProt Q13547); assay: HDAC enzyme assay (HDAC1); type: biochemical
HDAC3 = HDAC3 (Homo sapiens (Human), UniProt O15379); assay: HDAC enzyme assay (HDAC3); type: biochemical
HDAC6 = HDAC6 (Homo sapiens (Human), UniProt Q9UBN7); assay: HDAC enzyme assay (HDAC6); type: biochemical
HDAC2 = HDAC2 (Homo sapiens (Human), UniProt Q92769); assay: HDAC enzyme assay (HDAC2); conditions: read-out: HDAC2 IC50
HDAC2, sequence (Q92769 whole entry): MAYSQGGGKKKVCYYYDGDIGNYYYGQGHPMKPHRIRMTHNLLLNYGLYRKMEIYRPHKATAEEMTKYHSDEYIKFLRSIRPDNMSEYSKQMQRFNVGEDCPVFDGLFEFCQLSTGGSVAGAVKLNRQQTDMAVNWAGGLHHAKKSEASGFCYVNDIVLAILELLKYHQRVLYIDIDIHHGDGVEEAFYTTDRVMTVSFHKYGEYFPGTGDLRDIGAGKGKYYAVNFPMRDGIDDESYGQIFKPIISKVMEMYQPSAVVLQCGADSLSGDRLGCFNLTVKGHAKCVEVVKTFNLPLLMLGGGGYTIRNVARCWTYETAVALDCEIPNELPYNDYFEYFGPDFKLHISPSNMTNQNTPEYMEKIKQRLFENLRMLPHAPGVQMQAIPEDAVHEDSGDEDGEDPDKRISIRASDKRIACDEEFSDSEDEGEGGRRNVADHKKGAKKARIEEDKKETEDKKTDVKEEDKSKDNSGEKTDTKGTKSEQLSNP

HDAC1, sequence (Q13547 whole entry): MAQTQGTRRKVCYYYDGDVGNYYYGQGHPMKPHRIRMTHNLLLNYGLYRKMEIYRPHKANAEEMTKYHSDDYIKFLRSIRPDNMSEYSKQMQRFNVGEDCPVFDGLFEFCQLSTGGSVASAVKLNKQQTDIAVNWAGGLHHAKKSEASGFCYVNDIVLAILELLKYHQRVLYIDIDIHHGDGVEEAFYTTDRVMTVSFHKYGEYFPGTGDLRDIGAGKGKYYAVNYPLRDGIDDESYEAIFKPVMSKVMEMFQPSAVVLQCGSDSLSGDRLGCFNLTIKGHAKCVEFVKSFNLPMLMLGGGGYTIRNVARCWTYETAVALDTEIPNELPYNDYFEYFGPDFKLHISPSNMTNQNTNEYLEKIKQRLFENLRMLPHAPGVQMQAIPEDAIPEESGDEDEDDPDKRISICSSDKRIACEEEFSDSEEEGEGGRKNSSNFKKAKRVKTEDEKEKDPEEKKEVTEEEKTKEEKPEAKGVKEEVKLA
HDAC3, sequence (O15379 whole entry): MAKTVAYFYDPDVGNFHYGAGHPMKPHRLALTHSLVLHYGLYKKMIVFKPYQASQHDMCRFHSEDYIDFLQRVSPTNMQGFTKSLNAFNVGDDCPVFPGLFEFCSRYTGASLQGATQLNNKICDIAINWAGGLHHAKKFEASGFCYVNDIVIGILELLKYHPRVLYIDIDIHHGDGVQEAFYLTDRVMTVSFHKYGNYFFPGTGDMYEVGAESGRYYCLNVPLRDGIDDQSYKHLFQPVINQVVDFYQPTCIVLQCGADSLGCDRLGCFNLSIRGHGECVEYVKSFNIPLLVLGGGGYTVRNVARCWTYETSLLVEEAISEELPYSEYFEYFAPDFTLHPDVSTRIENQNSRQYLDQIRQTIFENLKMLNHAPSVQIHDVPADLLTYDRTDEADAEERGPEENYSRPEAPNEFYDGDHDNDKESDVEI
HDAC3, sequence (Q9Y618 395-489 partner): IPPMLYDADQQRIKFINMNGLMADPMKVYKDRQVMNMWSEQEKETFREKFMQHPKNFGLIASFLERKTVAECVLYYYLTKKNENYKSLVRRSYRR
HDAC6, sequence (Q9UBN7 whole entry): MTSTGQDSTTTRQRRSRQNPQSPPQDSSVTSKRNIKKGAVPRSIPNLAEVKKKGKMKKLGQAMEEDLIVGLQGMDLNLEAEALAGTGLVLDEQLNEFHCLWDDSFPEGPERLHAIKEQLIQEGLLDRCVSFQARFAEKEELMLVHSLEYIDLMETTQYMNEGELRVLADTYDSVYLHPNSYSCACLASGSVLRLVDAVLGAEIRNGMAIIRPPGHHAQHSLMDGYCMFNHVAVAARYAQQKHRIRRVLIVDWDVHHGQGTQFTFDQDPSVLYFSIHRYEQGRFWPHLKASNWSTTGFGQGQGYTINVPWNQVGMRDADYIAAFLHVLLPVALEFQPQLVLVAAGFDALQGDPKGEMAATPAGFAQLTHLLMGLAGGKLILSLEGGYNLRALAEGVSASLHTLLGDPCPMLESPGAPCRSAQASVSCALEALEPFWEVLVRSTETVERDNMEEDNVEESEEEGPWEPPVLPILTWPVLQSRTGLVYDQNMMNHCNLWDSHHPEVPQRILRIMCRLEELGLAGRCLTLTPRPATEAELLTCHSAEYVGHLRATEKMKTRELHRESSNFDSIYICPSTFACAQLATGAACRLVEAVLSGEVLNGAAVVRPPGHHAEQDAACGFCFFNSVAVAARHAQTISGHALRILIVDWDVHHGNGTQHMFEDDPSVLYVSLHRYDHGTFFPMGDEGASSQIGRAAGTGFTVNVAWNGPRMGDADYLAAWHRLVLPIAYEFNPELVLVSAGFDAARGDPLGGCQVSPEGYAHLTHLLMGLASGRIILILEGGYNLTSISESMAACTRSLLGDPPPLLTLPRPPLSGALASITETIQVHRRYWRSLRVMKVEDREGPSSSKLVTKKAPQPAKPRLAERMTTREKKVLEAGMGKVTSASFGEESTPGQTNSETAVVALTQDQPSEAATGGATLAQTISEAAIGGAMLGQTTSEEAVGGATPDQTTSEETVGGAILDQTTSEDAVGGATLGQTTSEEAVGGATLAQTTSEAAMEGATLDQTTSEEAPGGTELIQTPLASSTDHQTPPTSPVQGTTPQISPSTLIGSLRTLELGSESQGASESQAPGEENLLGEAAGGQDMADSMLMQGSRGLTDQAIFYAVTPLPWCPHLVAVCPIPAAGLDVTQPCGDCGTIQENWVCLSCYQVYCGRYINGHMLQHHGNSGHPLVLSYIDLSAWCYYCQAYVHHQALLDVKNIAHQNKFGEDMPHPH

IC50 (HDAC1) | IC50 (HDAC3) | IC50 (HDAC6) | IC50 (HDAC2) | Compound | tactile allodynia / pain threshold (von Frey) [1] | persistence of effect on pain threshold after drug withdrawal ([1]; day 24, three days after dosing was stopped) | blood brain barrier penetration [2] | increase of latency time in Tail Flick test vs vehicle control (Rats) | metabolic changes incl. acyl-carnitines (AC 16:2, AC 18:2) [3] | mitochondrial movement (total distance traveled) [4] | histone acetylation (western blot) ([5]; at up to 1 uM) | tubulin acetylation (western blot) ([5]; whole cell extracts) | acetylation of axonal microtubules (acetyl-tubulin normalized to total tubulin) [6]
 |  |  |  | O=C(NO)c1cnc(NC2(c3ccccc3)CC2)nc1 [Compound 1, N-hydroxy-2-((1-phenylcyclopropyl)amino)pyrimidine-5-carboxamide] | reversed tactile allodynia in STZ rats in a dose dependent manner and restored the pain threshold in these rats to almost normal levels | persisted even after the drug was withdrawn | penetrates the blood brain barrier | not effective | normalized many of the metabolic changes, including the changes in acyl-carnitines |  |  |  | 
 |  |  |  | O=C(CCCCCCNC(=O)c1cnc(N(c2ccccc2)c2ccccc2)nc1)NO [Compound 2, 2-(diphenylamino)-N-(7-(hydroxyamino)-7-oxoheptyl)pyrimidine-5-carboxamide] | reversed tactile allodynia in STZ rats in a dose dependent manner and restored the pain threshold in these rats to almost normal levels |  | does not penetrate the blood brain barrier very well | not effective (except in the group that received Compound 2 at 30 mg/kg BID for 4 days) |  | restores normal pattern of mitochondrial movement | Minimal histone acetylation increase | induced an increase in tubulin acetylation in a dose-dependent matter | increases acetylation of axonal microtubules
68 nM | 105 nM | 2 nM | 82 nM | COc1ccc(C(F)(F)F)cc1CNc1ncc(C(=O)NO)cn1 [Compound 3, N-hydroxy-2-((2-methoxy-5-(trifluoromethyl)benzyl)amino)pyrimidine-5-carboxamide] | reversed tactile allodynia in STZ rats in a dose dependent manner and restored the pain threshold in these rats to almost normal levels |  |  |  |  |  |  |  | 
